Results as given in US11786532B2, “2-pyridones and methods of use thereof” (ALIGOS THERAPEUTICS, INC., priority 2020, dated 2023).

Target: T1, human thyroid receptor beta ligand-binding domain (THR-beta) (Homo sapiens, UniProt P10828)
T1 sequence (P10828 217-461 limits assumed): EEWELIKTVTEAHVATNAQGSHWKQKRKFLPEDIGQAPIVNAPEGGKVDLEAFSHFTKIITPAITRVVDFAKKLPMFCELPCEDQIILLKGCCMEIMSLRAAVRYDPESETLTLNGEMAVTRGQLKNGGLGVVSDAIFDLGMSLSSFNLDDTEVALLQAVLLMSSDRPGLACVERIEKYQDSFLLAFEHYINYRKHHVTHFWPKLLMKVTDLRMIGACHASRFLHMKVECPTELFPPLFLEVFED
Assay: THR Biochemical Assay (Assay 1): TR-FRET thyroid receptor beta coactivator assay
Settings: TR-FRET SRC2-2 coactivator recruitment, GST-tagged THR-beta LBD 1 nM, 1 hr at rt; read-out: Assay 1 (EC50, THR-beta agonist activity)
Text: THR Biochemical Assay (Assay 1)
The TR-FRET thyroid receptor beta coactivator assay is to be used. The assay uses a terbium-labeled anti-GST antibody, a glutathione-S-transferase (GST) tagged human thyroid receptor, beta or alpha, ligand-binding domain (LBD), and a fluorescein labeled SRC2-2 coactivator peptide. The antibody interacts with the LBD, where the agonist will also bind, resulting in increased affinity for the SRC2-2 coactivator peptide causing energy transfer of the acceptor fluorophore and a FRET emission shift from 495 to 520 nm. The energy transfer is detected as an increase in the fluorescence emission of the fluorescein acceptor, and a decrease in the fluorescence emission of the terbium donor. The assay is to be performed in a 384-well black plate in a final volume of 20 μL. Serial dilution of various test agonists will be performed in DMSO (1% final DMSO concentration) and added to the test plate. Thyroid receptor beta LBD will usually be added to the plate at a final concentration of 1 nM, followed by the mixture of the fluorescein labeled SRC2-2 coactivator peptide, and the terbium-labeled anti-GST antibody at final concentrations of 200 nM and 2 nM respectively. The assay will often be incubated for 1 hr at rt protected from light. The TR-FRET will then be measured on a Victor multilabel reader (Perkin Elmer) using an excitation wavelength of 340 nm with emission filters of 495 nm and 520 nm. The assay will be quantified by expressing a ratio (520:495) of the intensities, and the resulting activation curves; EC50 values are to be generated using a sigmoidal dose response (variable slope) equation in GraphPad™ Prism 8.0.

Row | Structure (SMILES) | EC50 [nM]
1 | CC1CCc2c(Oc3c(Cl)cc(-n4nc(N)c(=O)[nH]c4=O)cc3Cl)ccc(=O)n21 (single isomer, unassigned) [Example 38, 6-amino-2-(3,5-dichloro-4-((3-methyl-5-oxo-1,2,3,5-tetrahydroindolizin-8-yl)oxy)phenyl)-1,2,4-triazine-3,5(2H,4H)-dione] | 50 to 250
2 | CC(C)c1cc(Oc2c(Cl)cc(-n3ncc(=O)[nH]c3=O)cc2Cl)c[nH]c1=O [Compound 3, 2-(3,5-dichloro-4-((5-isopropyl-6-oxo-1,6-dihydropyridin-3-yl)oxy)phenyl)-1,2,4-triazine-3,5(2H,4H)-dione] | 50 to 250
3 | CC(C)c1cc(Oc2c(Cl)cc(-c3nn(C)c(=O)[nH]c3=O)cc2Cl)c[nH]c1=O [Compound 10, 6-(3,5-dichloro-4-((5-isopropyl-6-oxo-1,6-dihydropyridin-3-yl)oxy)phenyl)-2-methyl-1,2,4-triazine-3,5(2H,4H)-dione] | 50 to 250

Second part, the compound after the results:

Row | EC50 [nM] | Structure (SMILES)
4 | 50 to 250 | CC(C)c1cc(Oc2c(Cl)cc(NC(=O)C(=O)O)cc2Cl)c[nH]c1=O [Compound 4, 2-((3,5-dichloro-4-((5-isopropyl-6-oxo-1,6-dihydropyridin-3-yl)oxy)phenyl)amino)-2-oxoacetic acid]
5 | < 50 | CC1CCc2c(Oc3c(Cl)cc(-n4nc(C#N)c(=O)[nH]c4=O)cc3Cl)ccc(=O)n21 (centres unmarked) [Example 35, 2-(3,5-dichloro-4-((3-methyl-5-oxo-1,2,3,5-tetrahydroindolizin-8-yl)oxy)phenyl)-3,5-dioxo-2,3,4,5-tetrahydro-1,2,4-triazine-6-carbonitrile]
